Experimental data: ChEMBL document CHEMBL5584226, “α-Fluorination of tropane compounds and its impact on physicochemical and ADME properties” (Bioorg Med Chem Lett, 2024)
Values after ≈ are worked out from the molar mass of the structure shown.

What was measured:
[1] = Permeability of the compound by PAMPA method; type: ADME; settings: read-out: permeability
[2] = Aqueous solubility of the compound in JP1 at pH 1.2; type: physicochemical; settings: JP1, pH 1.2
[3] = Aqueous solubility of the compound in PBS buffer at pH 7.4; type: physicochemical
[4] = Microsomal stability in human liver microsomes assessed as parent compound remaining measured after 15 mins; type: ADME, Microsome; settings: read-out: Stability
P-gp (ABCB1) = P-gp (ABCB1) (Homo sapiens, UniProt P08183); assay: Substrate activity at P-gp (unknown origin) assessed as efflux ratio; type: ADME; settings: not told
[5] = molecular target: Voltage-gated inwardly rectifying potassium channel KCNH2 (Homo sapiens, UniProt Q12809); assay: Inhibition of hERG; type: toxicity
[6] = molecular target: Sodium channel protein type 5 subunit alpha (Homo sapiens, UniProt Q14524); assay: Inhibition of Nav1.5 (unknown origin)
[7] = Dissociation constant, pKa of the compound; type: physicochemical

Voltage-gated inwardly rectifying potassium channel KCNH2, sequence (Q12809 whole entry): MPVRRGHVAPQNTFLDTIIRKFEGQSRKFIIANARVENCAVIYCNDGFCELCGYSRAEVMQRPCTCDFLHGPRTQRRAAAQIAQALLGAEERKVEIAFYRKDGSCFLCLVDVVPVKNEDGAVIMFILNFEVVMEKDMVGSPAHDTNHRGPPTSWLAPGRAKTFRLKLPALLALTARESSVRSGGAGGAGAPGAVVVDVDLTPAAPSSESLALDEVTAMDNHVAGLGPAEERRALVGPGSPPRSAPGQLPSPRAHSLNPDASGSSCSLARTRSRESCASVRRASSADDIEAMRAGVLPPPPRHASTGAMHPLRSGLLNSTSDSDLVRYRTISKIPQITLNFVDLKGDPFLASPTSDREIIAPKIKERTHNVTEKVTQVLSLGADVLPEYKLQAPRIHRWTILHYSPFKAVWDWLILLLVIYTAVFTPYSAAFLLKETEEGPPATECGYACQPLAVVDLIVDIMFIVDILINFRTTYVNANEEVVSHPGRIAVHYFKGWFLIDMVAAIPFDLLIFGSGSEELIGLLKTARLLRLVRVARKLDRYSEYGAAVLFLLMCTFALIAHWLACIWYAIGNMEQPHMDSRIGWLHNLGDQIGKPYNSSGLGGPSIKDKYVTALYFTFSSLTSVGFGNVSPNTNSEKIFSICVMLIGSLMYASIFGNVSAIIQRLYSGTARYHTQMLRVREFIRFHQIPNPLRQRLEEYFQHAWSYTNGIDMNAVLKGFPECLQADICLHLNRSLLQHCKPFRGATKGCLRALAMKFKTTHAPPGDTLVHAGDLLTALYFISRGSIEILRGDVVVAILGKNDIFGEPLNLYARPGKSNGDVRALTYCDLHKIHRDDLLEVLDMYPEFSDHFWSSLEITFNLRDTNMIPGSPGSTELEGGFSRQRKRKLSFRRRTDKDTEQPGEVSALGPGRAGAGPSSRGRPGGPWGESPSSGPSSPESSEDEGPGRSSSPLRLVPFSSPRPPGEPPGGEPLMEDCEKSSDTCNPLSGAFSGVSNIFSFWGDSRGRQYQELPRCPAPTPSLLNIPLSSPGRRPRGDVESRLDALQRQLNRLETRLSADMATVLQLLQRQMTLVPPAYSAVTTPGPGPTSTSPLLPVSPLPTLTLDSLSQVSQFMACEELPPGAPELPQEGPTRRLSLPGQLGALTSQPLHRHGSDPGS
Sodium channel protein type 5 subunit alpha, sequence (Q14524 whole entry): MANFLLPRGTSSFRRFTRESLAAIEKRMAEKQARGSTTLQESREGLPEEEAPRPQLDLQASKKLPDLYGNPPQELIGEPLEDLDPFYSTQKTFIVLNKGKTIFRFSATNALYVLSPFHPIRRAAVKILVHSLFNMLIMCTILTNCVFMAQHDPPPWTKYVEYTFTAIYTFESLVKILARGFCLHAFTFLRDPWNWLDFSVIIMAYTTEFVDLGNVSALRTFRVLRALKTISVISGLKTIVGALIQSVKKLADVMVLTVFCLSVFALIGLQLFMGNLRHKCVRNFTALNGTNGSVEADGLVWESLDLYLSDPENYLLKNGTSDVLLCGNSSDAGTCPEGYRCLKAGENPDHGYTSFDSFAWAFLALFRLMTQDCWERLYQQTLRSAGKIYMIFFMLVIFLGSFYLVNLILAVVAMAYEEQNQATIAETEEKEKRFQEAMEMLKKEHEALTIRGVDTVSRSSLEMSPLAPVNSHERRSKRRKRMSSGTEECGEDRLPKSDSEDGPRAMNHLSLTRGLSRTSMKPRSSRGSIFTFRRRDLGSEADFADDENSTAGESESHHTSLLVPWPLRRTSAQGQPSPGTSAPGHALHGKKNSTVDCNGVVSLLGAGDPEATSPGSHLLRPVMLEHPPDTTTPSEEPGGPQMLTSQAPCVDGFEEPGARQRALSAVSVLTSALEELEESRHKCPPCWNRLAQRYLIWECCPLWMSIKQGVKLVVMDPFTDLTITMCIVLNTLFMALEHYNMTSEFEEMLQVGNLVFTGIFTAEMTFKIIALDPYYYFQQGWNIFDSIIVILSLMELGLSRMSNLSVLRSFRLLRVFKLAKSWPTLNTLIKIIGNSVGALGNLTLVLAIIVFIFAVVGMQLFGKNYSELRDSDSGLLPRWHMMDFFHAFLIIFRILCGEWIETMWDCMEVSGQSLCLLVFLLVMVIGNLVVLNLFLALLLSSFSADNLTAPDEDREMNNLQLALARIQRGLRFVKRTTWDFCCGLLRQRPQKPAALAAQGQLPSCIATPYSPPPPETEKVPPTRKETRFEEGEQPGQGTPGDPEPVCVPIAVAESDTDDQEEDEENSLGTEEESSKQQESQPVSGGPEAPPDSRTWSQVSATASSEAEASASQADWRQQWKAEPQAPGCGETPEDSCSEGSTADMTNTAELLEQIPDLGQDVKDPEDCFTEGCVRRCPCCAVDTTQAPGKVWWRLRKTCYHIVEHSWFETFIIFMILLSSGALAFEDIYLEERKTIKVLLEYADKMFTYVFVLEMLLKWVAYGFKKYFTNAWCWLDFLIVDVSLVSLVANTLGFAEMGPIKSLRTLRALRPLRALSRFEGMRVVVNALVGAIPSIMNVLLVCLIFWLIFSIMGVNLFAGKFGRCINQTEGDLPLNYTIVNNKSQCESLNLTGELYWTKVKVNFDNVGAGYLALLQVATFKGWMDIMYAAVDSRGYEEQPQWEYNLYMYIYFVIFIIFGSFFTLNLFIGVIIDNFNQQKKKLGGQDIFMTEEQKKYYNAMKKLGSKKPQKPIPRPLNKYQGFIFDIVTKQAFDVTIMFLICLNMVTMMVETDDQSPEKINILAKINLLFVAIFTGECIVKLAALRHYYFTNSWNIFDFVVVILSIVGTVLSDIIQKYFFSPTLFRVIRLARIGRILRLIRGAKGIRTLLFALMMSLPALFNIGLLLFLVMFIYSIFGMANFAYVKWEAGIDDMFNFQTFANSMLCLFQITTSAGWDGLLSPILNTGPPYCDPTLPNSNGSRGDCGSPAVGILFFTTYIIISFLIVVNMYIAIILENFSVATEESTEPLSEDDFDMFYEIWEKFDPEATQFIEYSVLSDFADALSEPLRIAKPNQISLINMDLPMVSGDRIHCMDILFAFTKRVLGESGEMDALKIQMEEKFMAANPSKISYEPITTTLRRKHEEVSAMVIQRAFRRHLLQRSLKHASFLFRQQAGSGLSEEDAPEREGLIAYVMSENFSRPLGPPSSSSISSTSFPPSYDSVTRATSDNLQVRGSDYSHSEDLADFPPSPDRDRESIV
P-gp (ABCB1), sequence (P08183 whole entry): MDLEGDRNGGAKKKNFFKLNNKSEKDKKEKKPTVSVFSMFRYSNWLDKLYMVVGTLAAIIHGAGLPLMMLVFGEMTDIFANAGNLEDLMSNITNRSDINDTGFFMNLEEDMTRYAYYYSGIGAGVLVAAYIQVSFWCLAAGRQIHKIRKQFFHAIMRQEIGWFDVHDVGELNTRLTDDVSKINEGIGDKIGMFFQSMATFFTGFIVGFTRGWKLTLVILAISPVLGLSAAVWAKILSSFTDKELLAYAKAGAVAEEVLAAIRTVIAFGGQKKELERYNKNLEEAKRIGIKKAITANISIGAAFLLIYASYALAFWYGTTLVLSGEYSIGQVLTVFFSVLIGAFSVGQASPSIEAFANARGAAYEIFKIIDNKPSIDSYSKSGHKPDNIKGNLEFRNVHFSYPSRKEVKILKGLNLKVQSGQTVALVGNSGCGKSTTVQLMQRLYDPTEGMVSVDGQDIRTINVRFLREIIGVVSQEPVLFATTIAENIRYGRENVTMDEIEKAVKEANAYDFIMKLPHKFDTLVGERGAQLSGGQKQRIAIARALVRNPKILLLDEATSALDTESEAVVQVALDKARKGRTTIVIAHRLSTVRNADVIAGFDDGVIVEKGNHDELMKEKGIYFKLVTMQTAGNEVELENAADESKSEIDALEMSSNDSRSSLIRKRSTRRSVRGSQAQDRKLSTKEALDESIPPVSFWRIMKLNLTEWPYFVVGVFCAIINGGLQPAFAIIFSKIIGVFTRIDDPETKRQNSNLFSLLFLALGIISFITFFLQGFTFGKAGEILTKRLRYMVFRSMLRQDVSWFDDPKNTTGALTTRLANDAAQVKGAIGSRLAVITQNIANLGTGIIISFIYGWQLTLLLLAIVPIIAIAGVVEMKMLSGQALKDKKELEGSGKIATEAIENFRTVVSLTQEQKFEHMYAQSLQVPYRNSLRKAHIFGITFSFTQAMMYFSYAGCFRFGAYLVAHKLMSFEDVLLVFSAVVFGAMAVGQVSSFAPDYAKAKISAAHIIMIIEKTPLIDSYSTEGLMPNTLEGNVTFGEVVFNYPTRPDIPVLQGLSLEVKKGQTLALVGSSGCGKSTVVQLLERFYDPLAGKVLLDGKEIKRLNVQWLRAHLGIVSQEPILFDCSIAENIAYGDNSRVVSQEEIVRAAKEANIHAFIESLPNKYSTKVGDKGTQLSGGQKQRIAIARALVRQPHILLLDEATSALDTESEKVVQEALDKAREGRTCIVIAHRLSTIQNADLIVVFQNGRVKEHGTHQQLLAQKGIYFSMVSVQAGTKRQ

Row | Structure (SMILES) | Papp [1] | solubility [2] | solubility [3] | remaining at 0.25 h [4] | efflux ratio (P-gp (ABCB1)) | IC50 [5] | IC50 [6] | pKa [7]
1 | O=c1n(CCCN2C3CCC2CC(COc2ccccc2F)C3)nc2ccccn12 (stereo not drawn) | 4.86 ×10⁻⁶ cm/s | ≥ 100 µM | 95 µM (≈ 39 µg/mL) | 45.6% | 3.07 | 0.07 µM | 6 µM | 
2 | O=c1n(CC(F)CN2C3CCC2CC(OCc2ccccc2F)C3)nc2ccccn12 (stereo not drawn) | 10.6 ×10⁻⁶ cm/s | ≥ 100 µM | 82 µM (≈ 35.1 µg/mL) | 66.9% | 1.27 | 1.8 µM | 17.8 µM | 8.1
3 | O=c1n(CC(F)CN2C3CCC2CC(OCc2ccccc2F)C3)nc2n1CCC2 (stereo not drawn) | 4.44 ×10⁻⁶ cm/s | 79 µM (≈ 33.1 µg/mL) | 82 µM (≈ 34.3 µg/mL) | 92.3% | 2.52 | 22.2 µM | 13.4 µM | 
4 | O=c1n(CCCN2C3CCC2(F)CC(COc2ccccc2F)C3)nc2ccccn12 (racemic) | 11.1 ×10⁻⁶ cm/s | ≥ 100 µM | 61 µM (≈ 26.1 µg/mL) | 34.7% | 1.34 | > 30 µM | > 30 µM | 
5 | O=c1n(CCCN2C3CCC2(F)CC(OCc2ccccc2F)C3)nc2n1CCC2 (stereo not drawn) | 7.78 ×10⁻⁶ cm/s | ≥ 100 µM | 96 µM (≈ 40.2 µg/mL) | 31.8% | 1.39 | > 30 µM | > 30 µM | 
6 | O=c1n(CCCN2C3CCC2CC(OCc2ccccc2F)C3)nc2n1CCC2 (stereo not drawn) | 1.62 ×10⁻⁶ cm/s | ≥ 100 µM | ≥ 100 µM | 95.8% | 19.4 | 5.2 µM | 5.9 µM | 
7 | O=c1n(CC(O)CN2C3CCC2CC(OCc2ccccc2F)C3)nc2ccccn12 (stereo not drawn) | 2.16 ×10⁻⁶ cm/s | ≥ 100 µM | 95 µM (≈ 40.5 µg/mL) | 82% | 6.36 | 1.2 µM | 11.9 µM | 
8 | O=c1n(CCCN2C3CCC2CC(OCc2ccccc2F)C3)nc2ccccn12 (stereo not drawn) | 4.93 ×10⁻⁶ cm/s | ≥ 100 µM | 99 µM (≈ 40.6 µg/mL) | 70.9% | 3.39 | 0.11 µM | 3 µM | 8.7
9 | O=c1n(CC(O)CN2C3CCC2CC(OCc2ccccc2F)C3)nc2n1CCC2 (stereo not drawn) | 0.46 ×10⁻⁶ cm/s | ≥ 100 µM | 94 µM (≈ 39.2 µg/mL) | 99.8% | 9.16 | 19.7 µM | 12.9 µM | 
10 | O=c1n(CCCN2C3CCC2(F)CC(OCc2ccccc2F)C3)nc2ccccn12 (stereo not drawn) | 10.6 ×10⁻⁶ cm/s | ≥ 100 µM | 73 µM (≈ 31.3 µg/mL) | 10.7% | 0.96 | 7.6 µM | > 30 µM | 5.4
